# Experimental data taken from US3955959A, “Herbicide for use in transplanted rice” (priority 1974, dated 1976).
# Where “and” joins values, the source holds several entries; their conditions need not be identical. Identical values can stand only once.
# What was measured:
# Aj (Aneiliema japonica) = test: Example 1 field test, weed control in transplanted rice, Iri, Korea; assay type: in vivo; conditions: av. of 36 and 63 DAT
# Source text: (§1) In the field test 48 day-old seedlings (Watanabe variety) were transplanted to plots 2.5 × 6 m. seeded with the weed seeds indicated in Table 1. At 5 and 10 DAT periods, the herbicides were applied to the plants (now at the 1.2 and 2.0 leaf stage, respectively, of grass weed) at the indicated rate in kilograms per hectare (kg/ha). The weed control and rice injury results for 3 replications are reported in percentages as of the indicated times of observation. The percentages given in the "Perennials" column are based on the weight of the weeds at 63 DAT, i.e., 42 gms/3.6 m^2 for the weedy check.
# Ci (Cyperus iria) = test: as above; assay type: in vivo; conditions: av. of 36 and 63 DAT
# Source text: as §1
# [1] = tested on: Mv (Monochoria vaginalis); test: as above; assay type: in vivo; conditions: av. of 36 and 63 DAT
# Source text: as §1
# [2] = tested on: Eo (Echinochloa oryzicola); test: as above; assay type: in vivo; conditions: av. of 36 and 63 DAT
# Source text: as §1
# [3] = tested on: ordinary transplanted rice; test: Example 4 field test, crop injury; conditions: obs. 36 DAT
# Description: (§2) In the tests described in the tables below, the herbicides were formulated and used in granular form in conventional manner. […] The commercial herbicide used was a granular product having 5% active ingredient.
# (§3) In the field tests of the herbicide of this invention with transplanted rice, the rice seedlings were grown in conventional manner, by seeding the rice in a typical seedbed of sandy loam to clay soil of the country wherein the test was conducted. For laboratory and greenhouse work the seedlings were obtained by seeding rice in a mixture of soil, e.g., Ray silt loam, and peat in wood flats. For purposes of testing the herbicides on younger rice seedlings (infant or Dapog) the rice was usually allowed to grow for 6-15 days before lifting for transplanting. Older (ordinary) rice plants were usually grown for a period of about 2-3 weeks, or as much as about 7 weeks before lifting. Since the period of growth is dependent upon climatic conditions, a better measure of when to transplant the rice seedling is the leaf stage of growth; for infant or Dapog rice the seedling is lifted at the 1.5-2 leaf stage of growth, and for ordinary seedlings at the 2.5-5 leaf stage. The seedlings were then transplanted to the test plots for evaluation of the herbicide for injury against weed species present with the transplanted rice. The herbicides were then applied to the growth medium of the weeds and transplant rice, either preemergent or postemergent with respect to the weeds and postemergent with respect to the transplanted rice. Application times are designated in the tables as "DAT", meaning "days after transplant". Application rates given in the tables refer to the amount of active ingredient used.
# (§4) In this example comparative field tests were conducted with Herbicides A and B on ordinary transplanted rice at Munoz, Philippines.
# (§5) Twenty-one (21) day-old ordinary wet bed seedlings of the Fortuna variety were transplanted to field plots and Herbicides A and B applied at 5 DAT and 14 DAT. The field plots were overseeded with barnyardgrass (E. crusgalli) at 2 kgs/ha. Treatments were replicated four times.
# [4] = tested on: Broadleaf: Mv, Sz (Monochoria vaginalis, Sphenoclea zeylanica); test: Example 4 field test on ordinary rice, weed control, Munoz, Philippines; assay type: in vivo, Monochoria vaginalis and Sphenoclea zeylanica; conditions: obs. 36 DAT
# Source text: (§6) Treatments were replicated four times.
# [5] = tested on: weeds in ordinary transplanted rice; test: Example 4 field test, overall weed control; assay type: in vivo
# Source text: as §6
# [6] = tested on: Ea (Eleocharis acicularis); test: Example 5 field test, weed control, JAAPR, Japan; assay type: in vivo
# [7] = tested on: weeds Ec, Ann. Cyp, Mv, Obw, Ea; test: Example 5 field test, average weed control, JAAPR, Japan
# Description: as §2, §3
# The rice seedlings were grown to the 1.7 leaf stage for infant seedlings and to the 5.5 leaf stage for ordinary seedlings. Two days after puddling the soil in which the seedlings were to be transplanted, both infant and ordinary seedlings were transplanted into plots 8.5 m^2.
# The weed symbol "Obw" represents "other broadleaf weeds" of unspecified identity. Results presented in Table 5 represent the average of 2 replications.
# Cyperus difformis = test: Example 2 field test, weed control, Chia Yi, Taiwan; assay type: in vivo; conditions: obs. 63 DAT
# Description: In the field tests of the herbicide of this invention with transplanted rice, the rice seedlings were grown in conventional manner, by seeding the rice in a typical seedbed of sandy loam to clay soil of the country wherein the test was conducted. For laboratory and greenhouse work the seedlings were obtained by seeding rice in a mixture of soil, e.g., Ray silt loam, and peat in wood flats. For purposes of testing the herbicides on younger rice seedlings (infant or Dapog) the rice was usually allowed to grow for 6-15 days before lifting for transplanting. Older (ordinary) rice plants were usually grown for a period of about 2-3 weeks, or as much as about 7 weeks before lifting. Since the period of growth is dependent upon climatic conditions, a better measure of when to transplant the rice seedling is the leaf stage of growth; for infant or Dapog rice the seedling is lifted at the 1.5-2 leaf stage of growth, and for ordinary seedlings at the 2.5-5 leaf stage. The seedlings were then transplanted to the test plots for evaluation of the herbicide for injury against weed species present with the transplanted rice. The herbicides were then applied to the growth medium of the weeds and transplant rice, either preemergent or postemergent with respect to the weeds and postemergent with respect to the transplanted rice. […] Application rates given in the tables refer to the amount of active ingredient used.
# Rice seedlings (ordinary) of Tainan No. 5 variety (japonica) were transplanted at 19 days of growth. Granular formulations of Herbicides A and B were applied at the 1 leaf stage of grass weed (4 DAT) and 2.5 leaf stage of grass weed (10 DAT).
# [8] = tested on: ordinary transplanted rice; test: Example 4 field test, rice yield; assay type: in vivo, rice (Fortuna variety); conditions: in vivo
# Description: as §2, §3, §4, §5
# Dapog transplanted rice = test: Example 3 field test, crop injury; conditions: for Crop Injury (%): obs. 42 DAT
# Description: as §2, §3
# Eleven (11) day-old Dapog seedlings were transplanted and treated at 5 DAT and 14 DAT with Herbicides A and B. The plots were overseeded with Echinochloa crusgalli seeds at 2 kgs/ha prior to transplanting. Treatments were replicated four times.
# [9] = 1.0 kg/ha, 15 DAT, infant seedlings
# [10] = 1.0 kg/ha, 15 DAT, ordinary seedlings
# [11] = .25 kg/ha, 2 DAT, infant seedlings
# [12] = .25 kg/ha, 2 DAT, ordinary seedlings
# [13] = .5 kg/ha, 7 DAT, infant seedlings
# [14] = .5 kg/ha, 7 DAT, ordinary seedlings
smiles,measurement,setting,value
"CCCCOCN(C(=O)CCl)c1c(C)cccc1C(C)(C)C [Herbicide A, n-(butoxymethyl)-6'-tert-butyl-2-chloro-o-acetotoluidide]",% Weed Control (Aj),"Aj (Aneiliema japonica); 5 DAT, 1.0 kg/ha",81%
same,% Weed Control (Aj),"Aj (Aneiliema japonica); 5 DAT, 2.0 kg/ha",86%
same,% Weed Control (Aj),"Aj (Aneiliema japonica); 5 DAT, .25 kg/ha",66%
same,% Weed Control (Aj),"Aj (Aneiliema japonica); 5 DAT, .5 kg/ha",84%
same,% Weed Control (Aj),"Aj (Aneiliema japonica); 10 DAT, 1.0 kg/ha",79%
same,% Weed Control (Aj),"Aj (Aneiliema japonica); 10 DAT, 2.0 kg/ha",88%
same,% Weed Control (Aj),"Aj (Aneiliema japonica); 10 DAT, .25 kg/ha",73%
same,% Weed Control (Aj),"Aj (Aneiliema japonica); 10 DAT, .5 kg/ha",79%
same,% Weed Control (Ci),"Ci (Cyperus iria); 5 DAT, 1.0 kg/ha",100%
same,% Weed Control (Ci),"Ci (Cyperus iria); 5 DAT, 2.0 kg/ha",95%
same,% Weed Control (Ci),"Ci (Cyperus iria); 5 DAT, .25 kg/ha",85%
same,% Weed Control (Ci),"Ci (Cyperus iria); 5 DAT, .5 kg/ha",95%
same,% Weed Control (Ci),"Ci (Cyperus iria); 10 DAT, 1.0 kg/ha",97%
same,% Weed Control (Ci),"Ci (Cyperus iria); 10 DAT, 2.0 kg/ha",93%
same,% Weed Control (Ci),"Ci (Cyperus iria); 10 DAT, .25 kg/ha",74%
same,% Weed Control (Ci),"Ci (Cyperus iria); 10 DAT, .5 kg/ha",98%
same,% Weed Control (Mv),"[1]; 5 DAT, 1.0 kg/ha",89%
same,% Weed Control (Mv),"[1]; 5 DAT, 2.0 kg/ha",82%
same,% Weed Control (Mv),"[1]; 5 DAT, .25 kg/ha",72%
same,% Weed Control (Mv),"[1]; 5 DAT, .5 kg/ha",80%
same,% Weed Control (Mv),"[1]; 10 DAT, 1.0 kg/ha",72%
same,% Weed Control (Mv),"[1]; 10 DAT, 2.0 kg/ha",83%
same,% Weed Control (Mv),"[1]; 10 DAT, .25 kg/ha",53%
same,% Weed Control (Mv),"[1]; 10 DAT, .5 kg/ha",80%
same,% Weed Control (Eo),"[2]; 5 DAT, 1.0 kg/ha",91%
same,% Weed Control (Eo),"[2]; 5 DAT, 2.0 kg/ha",94%
same,% Weed Control (Eo),"[2]; 5 DAT, .25 kg/ha",86%
same,% Weed Control (Eo),"[2]; 5 DAT, .5 kg/ha",93%
same,% Weed Control (Eo),"[2]; 10 DAT, 1.0 kg/ha",90%
same,% Weed Control (Eo),"[2]; 10 DAT, 2.0 kg/ha",92%
same,% Weed Control (Eo),"[2]; 10 DAT, .25 kg/ha",82%
same,% Weed Control (Eo),"[2]; 10 DAT, .5 kg/ha",88%
same,Crop Injury (%),"[3]; 5 DAT, 1.0 kg/ha",0%
same,Crop Injury (%),"[3]; 5 DAT, 2.0 kg/ha",60%
same,Crop Injury (%),"[3]; 5 DAT, .25 kg/ha",0%
same,Crop Injury (%),"[3]; 5 DAT, .5 kg/ha",0%
same,Crop Injury (%),"[3]; 14 DAT, 1.0 kg/ha",0%
same,Crop Injury (%),"[3]; 14 DAT, 2.0 kg/ha",30%
same,Crop Injury (%),"[3]; 14 DAT, .25 kg/ha",0%
same,Crop Injury (%),"[3]; 14 DAT, .5 kg/ha",0%
same,"% Weed control, Broadleaf (Mv,Sz)","[4]; 5 DAT, 1.0 kg/ha",100%
same,"% Weed control, Broadleaf (Mv,Sz)","[4]; 5 DAT, 2.0 kg/ha",100%
same,"% Weed control, Broadleaf (Mv,Sz)","[4]; 5 DAT, .25 kg/ha",100%
same,"% Weed control, Broadleaf (Mv,Sz)","[4]; 5 DAT, .5 kg/ha",100%
same,"% Weed control, Broadleaf (Mv,Sz)","[4]; 14 DAT, 1.0 kg/ha",60%
same,"% Weed control, Broadleaf (Mv,Sz)","[4]; 14 DAT, 2.0 kg/ha",60%
same,"% Weed control, Broadleaf (Mv,Sz)","[4]; 14 DAT, .25 kg/ha",50%
same,"% Weed control, Broadleaf (Mv,Sz)","[4]; 14 DAT, .5 kg/ha",50%
same,control of all weeds,[5]; 5 DAT,complete control of all weeds
same,weed control in words,[5]; 14 DAT,dropped off
same,weed control vs Herbicide B,[5]; 14 DAT,more weed control
same,% Weed Control (Ea),[6]; [9],89%
same,% Weed Control (Ea),[6]; [10],90%
same,% Weed Control (Ea),[6]; [11],87%
same,% Weed Control (Ea),[6]; [12],79%
same,% Weed Control (Ea),[6]; [13],89%
same,% Weed Control (Ea),[6]; [14],98%
same,weed control vs Herbicide B at 1.5 kg/ha 7 DAT,"[7]; 0.25 kg/ha, 2 DAT, Ec, Ann. Cyp, Obw and average, ordinary and infant",equal to or superior
same,"% Weed Control, Avg.",[7]; [9],90%
same,"% Weed Control, Avg.",[7]; [10],90%
same,"% Weed Control, Avg.",[7]; [11],93%
same,"% Weed Control, Avg.",[7]; [12],92%
same,"% Weed Control, Avg.",[7]; [13],81%
same,"% Weed Control, Avg.",[7]; [14],84%
same,fold more active than Herbicide B,"[7]; average weed control, 7 DAT",at least 3 fold
same,% Weed Control (Cyperus difformis),"Cyperus difformis; 4 DAT, 1.0 kg/ha",100%
same,% Weed Control (Cyperus difformis),"Cyperus difformis; 4 DAT, 2.0 kg/ha",100%
same,% Weed Control (Cyperus difformis),"Cyperus difformis; 4 DAT, .25 kg/ha",100%
same,% Weed Control (Cyperus difformis),"Cyperus difformis; 4 DAT, .5 kg/ha",100%
same,% Weed Control (Cyperus difformis),"Cyperus difformis; 10 DAT, 1.0 kg/ha",100%
same,% Weed Control (Cyperus difformis),"Cyperus difformis; 10 DAT, 2.0 kg/ha",100%
same,% Weed Control (Cyperus difformis),"Cyperus difformis; 10 DAT, .25 kg/ha",100%
same,% Weed Control (Cyperus difformis),"Cyperus difformis; 10 DAT, .5 kg/ha",100%
same,Yield (% of H.W. Check),[8],129% and 136% and 123% and 101% and 90% and 97% and 100%
same,rice yield vs hand weeded check,[8],only slightly lower than the hand weeded check
same,rice yield vs hand weeded control,[8],slightly more than the hand weeded control
same,Crop Injury (%),"Dapog transplanted rice; 5 DAT, 1.0 kg/ha",40%
same,Crop Injury (%),"Dapog transplanted rice; 5 DAT, 2.0 kg/ha",50%
same,Crop Injury (%),"Dapog transplanted rice; 5 DAT, .25 kg/ha",0%
same,Crop Injury (%),"Dapog transplanted rice; 5 DAT, .5 kg/ha",0%
same,Crop Injury (%),"Dapog transplanted rice; 14 DAT, 1.0 kg/ha",0%
same,Crop Injury (%),"Dapog transplanted rice; 14 DAT, 2.0 kg/ha",80%
same,Crop Injury (%),"Dapog transplanted rice; 14 DAT, .25 kg/ha",0%
same,Crop Injury (%),"Dapog transplanted rice; 14 DAT, .5 kg/ha",0%
same,rice injury in words,"Dapog transplanted rice; higher rates, 5 DAT",considerable rice injury
